Our source for the IC50 and Ki values is US20190047966A1, “NOVEL COMPOUND AND PHARMACOLOGICALLY ACCEPTABLE SALT THEREOF” (MEIJI SEIKA PHARMA CO., LTD., priority 2016, published 2019).

Assay [1] addresses T1, human histamine H4 receptor (Homo sapiens, UniProt Q9H3N8).
T1 construct: purchased PerkinElmer Inc; host or cells: CHO-K1
Description: Evaluation of H4 Receptor Function ([35S]GTPγS binding). It counts as biochemical. Conditions: [35S]GTPγS binding, CHO-K1 membrane, 0.1 μM histamine; read-out: Evaluation of H4 Receptor Function (IC50 value, antagonistic effect). As for the experimental part: The antagonistic effect was evaluated by the method described below. Membrane preparation from recombinant CHO-K1 cell expressing the human histamine H4 receptor (PerkinElmer Inc.), 10 μM GDP, 0.1 μM histamine, and the compounds dissolved in DMSO were reacted at 30° C. for 20 minutes in a buffering solution containing 20 mM HEPES, pH 7.4, 100 mM NaCl, 10 mM MgCl2, 1 mM DTT, and 1 mM EDTA on an assay plate. Thereafter, SPA beads (Amersham plc) were added, followed by incubation for 60 minutes, and further 0.3 nM [^35S]GTPγS (PerkinElmer Inc.) was added, followed by incubation for 30 minutes.

The target in assay [2] is T1, human histamine H4 receptor. Description: Evaluation of Human H4 Receptor Affinity ([3H]histamine binding). Conditions: inhibition constant Ki, CHO-K1 membrane preparation, read-out: Evaluation of H4 Receptor Affinity. A digest of the protocol: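 Radioligand displacement: compound competes with 8.2 nM [3H]histamine at recombinant human H4 receptor in CHO-K1 membranes (Tris-HCl 50 mM pH 7.4, EDTA 1.25 mM; 25 °C, 90 min), with filter-bound radioactivity counted. IC50 was converted to Ki via Cheng-Prusoff (Kd 5.7 nM); 1.0 μM histamine set nonspecific binding.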

Assay [3] addresses T2, human histamine H1 receptor (Homo sapiens, UniProt P35367). Description: Evaluation of Human H1 Receptor Function (GeneBLAzer H1-NFAT-bla HEK 293T cells). It counts as cell-based. Conditions: histamine 30 nM, read-out: Evaluation of H1 Receptor Function (IC50 value, antagonistic effect). The protocol: Test Example 3: Evaluation of Human H1 Receptor Function
The antagonistic effect was evaluated by the method described below. GeneBLAzer® H1-NFAT-bla HEK 293T-cells (Invitrogen Corporation, recombinant cells expressing the human histamine H1 receptor) were incubated at 37° C. for 30 minutes in the presence of the test compounds dissolved in DMSO in a high glucose Dulbecco's Modified Eagle Medium (GlutaMAX, containing 10% fetal bovine serum, 100 μM nonessential amino acids, 25 mM HEPES, 100 U/mL penicillin, and 100 μg/mL streptomycin), and histamine was added such that the final concentration became 30 nM, followed by further incubation for 4.5 hours. Then, a mixture of LiveBLAzer™ FRET-B/G Loading Kit (Invitrogen Corporation) and Solution D (Invitrogen Corporation) was added, followed by leaving to stand at room temperature for 2 hours under shaded conditions. Thereafter, the fluorescence intensity was measured under two conditions of 400 nm/460 nm and 400 nm/535 nm (excitation light/fluorescence) by using a multilabel counter (EnVision: PerkinElmer Inc.). The 50% inhibitory concentration (IC50 value) was calculated in accordance with (measured value−blank measured value at 400 nm/460 nm)/(measured value−blank measured value at 400 nm/535 nm) of each test sample.

Assay [4] deals with T2, human histamine H1 receptor. As to the kind of experiment: Evaluation of Human H1 Receptor Affinity ([3H]pyrilamine binding). Also on record: purchased PerkinElmer Inc; host or cells: CHO-K1. Conditions: inhibition constant Ki, CHO-K1 membrane preparation. An outline of the steps: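 Ki values are Cheng-Prusoff conversions of IC50 (Kd 1.1 nM) from radioligand displacement of 1.2 nM [3H]pyrilamine, with 1.0 μM pyrilamine defining nonspecific binding.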

The structures appear in SMILES notation. Where a name gives a salt, the structure may show the parent alone.

T1 sequence (Q9H3N8 whole entry): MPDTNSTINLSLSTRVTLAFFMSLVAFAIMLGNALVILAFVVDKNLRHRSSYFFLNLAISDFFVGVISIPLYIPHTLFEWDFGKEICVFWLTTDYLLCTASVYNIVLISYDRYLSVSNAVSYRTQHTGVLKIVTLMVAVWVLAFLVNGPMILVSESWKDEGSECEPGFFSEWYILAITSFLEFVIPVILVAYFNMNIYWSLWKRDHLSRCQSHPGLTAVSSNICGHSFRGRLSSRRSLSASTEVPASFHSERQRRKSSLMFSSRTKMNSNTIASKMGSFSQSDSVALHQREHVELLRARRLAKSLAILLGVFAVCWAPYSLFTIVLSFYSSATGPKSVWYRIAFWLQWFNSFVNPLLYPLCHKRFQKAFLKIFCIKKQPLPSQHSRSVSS
T2 sequence (P35367 whole entry): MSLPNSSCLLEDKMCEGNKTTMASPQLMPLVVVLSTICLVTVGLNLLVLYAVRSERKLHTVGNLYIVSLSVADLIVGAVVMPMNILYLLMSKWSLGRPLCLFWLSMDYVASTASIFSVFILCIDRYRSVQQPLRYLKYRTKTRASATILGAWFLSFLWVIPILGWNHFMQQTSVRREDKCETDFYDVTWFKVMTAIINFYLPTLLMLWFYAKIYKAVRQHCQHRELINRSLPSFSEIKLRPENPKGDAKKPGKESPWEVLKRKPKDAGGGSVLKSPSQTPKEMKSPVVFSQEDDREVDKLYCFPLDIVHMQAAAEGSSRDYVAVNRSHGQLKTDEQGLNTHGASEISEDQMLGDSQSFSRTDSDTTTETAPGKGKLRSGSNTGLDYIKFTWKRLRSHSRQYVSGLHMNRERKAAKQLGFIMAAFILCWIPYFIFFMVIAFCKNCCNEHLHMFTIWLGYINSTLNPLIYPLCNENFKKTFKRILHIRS

As a reminder, the IC50 is the concentration needed to halve the response being measured. For `Nc1nc2c(c(N3CCN(CCOCc4nn[nH]n4)CC3)n1)CCc1cc(OCc3ccc(Cl)cc3)ccc1-2` [Example 22, 4-(4-(2-((tetrazol-5-yl)methoxy)ethyl)piperazin-1-yl)-8-((4-chlorobenzyl)oxy)-5,6-dihydrobenzo[h]quinazolin-2-amine], the IC50 in assay [1] was 0.2 to 2 µM; in assay [3], < 0.2 µM. Further, the Ki in assay [2] and in assay [4] was < 0.1 µM throughout.

With `Nc1nc2c(c(N3CCN(CCOC[C@H]4CC[C@H](C(=O)O)CC4)CC3)n1)CCc1cc(OCc3ccc(OC(F)(F)F)cc3)ccc1-2` [Example 29, trans-4-((2-(4-(2-amino-8-((4-(trifluoromethoxy)benzyl)oxy)-5,6-dihydrobenzo[h]quinazolin-4-yl)piperazin-1-yl)ethoxy)methyl)cyclohexane-1-carboxylic acid], the 50% inhibitory concentration (IC50) in assay [1] and in assay [3] was < 0.2 µM throughout. Besides, the Ki in assay [2] and in assay [4] was < 0.1 µM throughout.

For `C[C@]1(C(=O)O)C[C@H](OCCN2CCN(c3nc(N)nc4c3CCc3cc(OCc5ccc(OC(F)(F)F)cc5)ccc3-4)CC2)C1` [Example 32, trans-3-(2-(4-(2-amino-8-((4-(trifluoromethoxy)benzyl)oxy)-5,6-dihydrobenzo[h]quinazolin-4-yl)piperazin-1-yl)ethoxy)-1-methylcyclobutane-1-carboxylic acid], the IC50 in assay [1] and in assay [3] was < 0.2 µM in each case. Besides, the Ki in assay [2] and in assay [4] was < 0.1 µM in each case.

As for `Nc1nc2c(c(N3CCN(CCO[C@H]4C[C@@H](CC(=O)O)C4)CC3)n1)CCc1cc(OCc3ccc(OC(F)(F)F)cc3)ccc1-2` [Example 36, cis-2-(3-(2-(4-(2-amino-8-((4-(trifluoromethoxy)benzyl)oxy)-5,6-dihydrobenzo[h]quinazolin-4-yl)piperazin-1-yl)ethoxy)cyclobutyl)acetic acid], the half-inhibitory concentration (IC50) in assay [1] and in assay [3] was < 0.2 µM in each case. Besides, the Ki in assay [2] and in assay [4] was < 0.1 µM throughout.

In the case of `Nc1nc2c(c(N3CCN(CCO[C@@H]4CO[C@@H](C(=O)O)C4)CC3)n1)CCc1cc(OCc3ccc(OC(F)(F)F)cc3)ccc1-2` [Example 37, (2R,4S)-4-(2-(4-(2-amino-8-((4-(trifluoromethoxy)benzyl)oxy)-5,6-dihydrobenzo[h]quinazolin-4-yl)piperazin-1-yl)ethoxy)tetrahydrofuran-2-carboxylic acid], the half-inhibitory concentration (IC50) in assay [1] and in assay [3] was < 0.2 µM throughout. Moreover, the Ki in assay [2] and in assay [4] was < 0.1 µM in each case.

In the case of `NC(=O)N1CC(COCCN2CCN(c3nc(N)nc4c3CCc3cc(OCc5ccc(OC(F)(F)F)cc5)ccc3-4)CC2)C1` [Example 39, 3-((2-(4-(2-amino-8-((4-(trifluoromethoxy)benzyl)oxy)-5,6-dihydrobenzo[h]quinazolin-4-yl)piperazin-1-yl)ethoxy)methyl)azetidine-1-carboxamide], the IC50 in assay [1] and in assay [3] was < 0.2 µM throughout. The Ki in assay [2] and in assay [4] was < 0.1 µM throughout.

As for `CN1CCN(c2nc(N)nc3c2CCc2cc(NS(=O)(=O)c4ccc(Cl)cc4)ccc2-3)CC1` [Example 42, N-(2-amino-4-(4-methylpiperazin-1-yl)-5,6-dihydrobenzo[h]quinazolin-8-yl)-4-chlorobenzenesulfonamide], the values for the IC50 in assay [1] and in assay [3] were 0.2 to 2 µM and < 0.2 µM, respectively. The Ki in assay [2] and in assay [4] was < 0.1 µM each time.

As to `CN1CCN(c2nc(N)nc3c2CCc2cc(NS(=O)(=O)c4ccc(OC(F)(F)F)cc4)ccc2-3)CC1` [Example 54, N-(2-amino-4-(4-methylpiperazin-1-yl)-5,6-dihydrobenzo[h]quinazolin-8-yl)-4-(trifluoromethoxy)benzenesulfonamide], the IC50 in assay [1] is 0.2 to 2 µM; in assay [3] it was < 0.2 µM. Besides, the Ki in assay [2] and in assay [4] was < 0.1 µM throughout.

Take `CN(C)[C@H]1CCN(c2nc(N)nc3c2CCc2cc(OCc4ccccc4)ccc2-3)C1` [Example 102, (S)-8-(benzyloxy)-4-(3-(dimethylamino)pyrrolidin-1-yl)-5,6-dihydrobenzo[h]quinazolin-2-amine]: the IC50 is < 0.2 µM in assay [1] and 0.2 to 2 µM in assay [3]. Besides, the Ki in assay [2] is < 0.1 µM; in assay [4], 0.1 to 0.5 µM.

For the molecule `CS(=O)(=O)NCCOCCOCCN1CCN(c2nc(N)nc3c2CCc2cc(OCc4ccc(Cl)cc4)ccc2-3)CC1` [Example 111, N-(2-(2-(2-(4-(2-amino-8-((4-chlorobenzyl)oxy)-5,6-dihydrobenzo[h]quinazolin-4-yl)piperazin-1-yl)ethoxy)ethoxy)ethyl)methanesulfonamide dihydrochoride], the IC50 in assay [1] and in assay [3] was < 0.2 µM throughout. Further, the Ki in assay [2] and in assay [4] was < 0.1 µM in each case.

As to `CC(C)(OCCOCCN1CCN(c2nc(N)nc3c2CCc2cc(OCc4ccc(Cl)cc4)ccc2-3)CC1)C(=O)O` [Example 122, 2-(2-(2-(4-(2-amino-8-((4-chlorobenzyl)oxy)-5,6-dihydrobenzo[h]quinazolin-4-yl)piperazin-1-yl)ethoxy)ethoxy)-2-methylpropanoic acid], the half-inhibitory concentration (IC50) in assay [1] is 0.2 to 2 µM; in assay [3] it was < 0.2 µM. In addition, the results for the Ki in assay [2] and in assay [4] were 0.1 to 0.5 µM and < 0.1 µM, respectively.

In the case of `Nc1nc2c(c(N3CCN(CCOCCOCC(=O)O)CC3)n1)CCc1cc(OCc3ccc(OC(F)(F)F)cc3)ccc1-2` [Example 143, 2-(2-(2-(4-(2-amino-8-((4-(trifluoromethoxy)benzyl)oxy)-5,6-dihydrobenzo[h]quinazolin-4-yl)piperazin-1-yl)ethoxy)ethoxy)acetic acid formate], the 50% inhibitory concentration (IC50) in assay [1] and in assay [3] was < 0.2 µM each time. Also, the Ki in assay [2] and in assay [4] was < 0.1 µM throughout.

Turning to `Nc1nc2c(c(N3CCN(CCOCC4CC5(C4)CC(C(=O)O)C5)CC3)n1)CCc1cc(OCc3ccc(Cl)cc3)ccc1-2` (stereo not shown) [Example 152, 6-((2-(4-(2-amino-8-((4-chlorobenzyl)oxy)-5,6-dihydrobenzo[h]quinazolin-4-yl)piperazin-1-yl)ethoxy)methyl)spiro[3.3]heptane-2-carboxylic acid hydrochloride], the half-maximal inhibitory concentration (IC50) in assay [1] is 0.2 to 2 µM; in assay [3], < 0.2 µM. Moreover, the Ki in assay [2] and in assay [4] was < 0.1 µM in each case.

For the molecule `Nc1nc2c(c(N3CCN(CCOCCSCC(=O)O)CC3)n1)CCc1cc(OCc3ccc(OC(F)(F)F)cc3)ccc1-2` [Example 178, 2-((2-(2-(4-(2-amino-8-((4-(trifluoromethoxy)benzyl)oxy)-5,6-dihydrobenzo[h]quinazolin-4-yl)piperazin-1-yl)ethoxy)ethyl)thio)acetic acid], the IC50 in assay [1] and in assay [3] was < 0.2 µM throughout. The Ki in assay [2] and in assay [4] was < 0.1 µM each time.

As for `[2H]C([2H])(C(=O)O)[C@H]1C[C@@H](OCCN2CCN(c3nc(N)nc4c3CCc3cc(OCc5ccc(OC(F)(F)F)cc5)ccc3-4)CC2)C1` [Example 184, cis-2-(3-(2-(4-(2-amino-8-((4-(trifluoromethoxy)benzyl)oxy)-5,6-dihydrobenzo[h]quinazolin-4-yl)piperazin-1-yl)ethoxy)cyclobutyl)acetic-c-2,2-d2 acid], the IC50 in assay [1] and in assay [3] was < 0.2 µM in each case. In addition, the Ki in assay [2] and in assay [4] was < 0.1 µM each time.

Consider `CN1CCN(c2nc(N)nc3c2CCc2cc(OCc4ccc(F)cc4)ccc2-3)CC1` [Example 196, 8-((4-fluorobenzyl)oxy)-4-(4-methylpiperazin-1-yl)-5,6-dihydrobenzo[h]quinazolin-2-amine], for which the half-inhibitory concentration (IC50) in assay [1] and in assay [3] was < 0.2 µM each time. In addition, the Ki in assay [2] and in assay [4] was < 0.1 µM in each case.
